# Target: Estrogen receptor (Rattus norvegicus) (UniProt P06211+Q62986)
# Assay: Estrogenic potency in rats by subcutaneous dose relative to estradiol
# Format: functional
row,Relative potency,SMILES
1,4,CC(=O)Oc1ccc2c(c1)CC[C@H]1[C@@H]3CCC(=O)[C@@]3(C)C[C@H](O[N+](=O)[O-])[C@]21O
2,34,CC(=O)Oc1ccc2c(c1)C[C@@H](C)[C@@H]1[C@@H]2[C@@H](O[N+](=O)[O-])C[C@]2(C)C(=O)CC[C@@H]12 (stereo in doubt; 2b)
3,7470,CC(=O)Oc1ccc2c(c1)C[C@@H](C)[C@@H]1[C@@H]2[C@@H](O[N+](=O)[O-])C[C@]2(C)C(=O)CC[C@@H]12 (stereo in doubt; 3b)

# Reference: ChEMBL document CHEMBL1124653, “11 beta-nitrate estrane analogues: potent estrogens” (1989)
